The target of one data set is T1, Human GLP-1 receptor (Homo sapiens, UniProt P43220).
T1 construct: The full-length cDNA was cloned in pcDNA3.1(+); expressed in transfected cells
The format is cell-based. In short, it runs like this:
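Stably transfected CHO cells expressing human GLP-1R, passages 9-25, exposed to compounds for 30 min at 37 °C. Lysed in ice-cold 0.1 N HCl; total cAMP by immunoassay, protein by micro BCA; expressed as percent of water vehicle control, mean±SD.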

The target in a further data set is DPP IV (Homo sapiens, UniProt P27487). Nature of the data set: Stability against DPP IV enzyme. The format is in vitro ADME. Particulars: 2 μM, 37° C.; for half-life: read-out: half-life (t1/2) with DPP-IV enzyme. The procedure: (§1) Reactions were terminated by the addition of TFA/H2O (15 mL, 10% (v/v)). […] The column was equilibrated with TFA/H2O, at a flow rate of 1 mL/min. […] The absorbance was monitored at 206 nm using UV detector and peaks were collected manually prior to ESI-MS analysis.

Data set [1] can be described thus: Stability in human plasma. The format is in vitro ADME. The settings on record: 2 μM, 37° C.; for half-life: human, plasma, read-out: half-life (t1/2) in human plasma. The protocol:
as §1

A short description of data set [2]: Stability in simulated gastric fluid. Format: in vitro ADME. Particulars: 2 μM, 37° C., pH 1.5, pepsin; for half-life: simulated gi fluid, read-out: half-life (t1/2) in simulated gastric fluid. The procedure: as §1
A short description of data set [3]: Stability in simulated intestinal fluid. The format is in vitro ADME. The settings on record: 2 μM, 37° C., pH 7.5; for half-life: simulated gi fluid, read-out: half-life (t1/2) in simulated intestinal fluid. The protocol:
as §1

A short description of data set [4]: Stability against liver microsomes. The format is in vitro ADME, human. Particulars: 2 μM, 37° C.; for half-life: human, microsomes, read-out: half-life (t1/2) with liver microsomes. The procedure:
as §1
A general note: Liver microsomes are a subcellular fraction often used to study metabolism.

Where two headings read alike, the source gives them in different places.

The values below come from patent US8841413B2, “Antidiabetic compounds” (Cadila Healthcare Limited, priority 2006, dated 2014).

T1 sequence (P43220 24-463): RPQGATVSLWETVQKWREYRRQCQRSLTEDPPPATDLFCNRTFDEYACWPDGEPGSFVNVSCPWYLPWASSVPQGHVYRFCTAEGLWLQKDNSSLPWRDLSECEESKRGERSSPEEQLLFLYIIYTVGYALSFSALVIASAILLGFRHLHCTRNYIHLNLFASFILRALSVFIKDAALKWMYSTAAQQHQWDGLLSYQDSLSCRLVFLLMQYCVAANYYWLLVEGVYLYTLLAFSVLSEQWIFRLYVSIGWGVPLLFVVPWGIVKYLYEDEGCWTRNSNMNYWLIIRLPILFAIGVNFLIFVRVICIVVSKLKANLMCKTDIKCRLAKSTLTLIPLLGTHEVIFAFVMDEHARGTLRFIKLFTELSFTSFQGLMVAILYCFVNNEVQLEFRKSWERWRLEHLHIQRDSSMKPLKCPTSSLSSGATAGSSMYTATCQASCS
Chain of DPP IV (P27487 whole entry, species assumed): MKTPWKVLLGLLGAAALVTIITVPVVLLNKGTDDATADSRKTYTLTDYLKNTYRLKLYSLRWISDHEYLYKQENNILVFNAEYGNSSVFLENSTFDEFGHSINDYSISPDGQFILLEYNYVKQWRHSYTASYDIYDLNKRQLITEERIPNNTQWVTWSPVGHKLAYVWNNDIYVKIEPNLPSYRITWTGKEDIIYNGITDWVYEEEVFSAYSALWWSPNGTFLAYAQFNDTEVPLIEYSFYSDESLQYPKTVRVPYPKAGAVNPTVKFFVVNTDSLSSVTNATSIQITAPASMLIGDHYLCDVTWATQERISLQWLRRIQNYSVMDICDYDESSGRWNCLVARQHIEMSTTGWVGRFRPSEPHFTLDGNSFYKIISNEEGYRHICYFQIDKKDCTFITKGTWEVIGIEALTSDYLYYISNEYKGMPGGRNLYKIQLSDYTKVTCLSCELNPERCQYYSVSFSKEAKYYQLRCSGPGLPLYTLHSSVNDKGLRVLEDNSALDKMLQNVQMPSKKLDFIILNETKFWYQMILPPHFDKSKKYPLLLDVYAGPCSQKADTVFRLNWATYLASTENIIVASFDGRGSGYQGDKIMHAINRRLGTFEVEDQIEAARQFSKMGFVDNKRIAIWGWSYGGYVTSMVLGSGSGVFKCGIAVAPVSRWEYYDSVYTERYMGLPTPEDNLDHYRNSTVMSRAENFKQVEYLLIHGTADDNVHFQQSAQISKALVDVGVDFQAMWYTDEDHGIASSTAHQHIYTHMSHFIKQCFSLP

On to `CCc1cc(OC)ccc1-c1ccc(CC(NC(=O)[C@H](CC(=O)O)NC(=O)[C@H](CO)NC(=O)[C@@H](NC(=O)[C@H](Cc2ccccc2)NC(=O)[C@@H](NC(=O)CNC(=O)[C@H](CCC(N)=O)NC(=O)C(C)(C)NC(=O)[C@@H](N)Cc2c[nH]cn2)[C@@H](C)O)[C@@H](C)O)C(=O)NC(Cc2ccc(-c3ccccc3C(F)(F)F)cc2)C(N)=O)cc1` (single isomer, unassigned) [compound 16], for which the “Human GLP-1 R activity (cAMP release), % activity with respect to control” value was 69 ± 0.09% on Human GLP-1 receptor (1 nM test compound); 98 ± 0.07% on Human GLP-1 receptor (10 nM test compound); 99 ± 0.04% on Human GLP-1 receptor (100 nM test compound); 99 ± 0.01% at Human GLP-1 receptor (1 μM test compound); 99 ± 0.08% on Human GLP-1 receptor (10 μM test compound). Besides, at DPP IV, the “% degradation in 24 h when incubated with DPP-IV enzyme” value (shortened to “% degradation … with DPP-IV enzyme”) was found to be 00%. Moreover, the half-life is greater than 24 h on DPP IV; greater than 24 h in data set [1]; 4 h in data set [2]; greater than 24 h in data set [3]; 2 h in data set [4]. Moreover, the “% degradation in 24 h when incubated with human plasma” value (“% degradation … with human plasma” below) in data set [1] turned out to be 00%. In data set [2], the “% degradation in 24 h when incubated with simulated gastric fluid” value (“% degradation … with simulated gastric fluid” for short) was 43%. Besides, in data set [3], the “% degradation in 24 h when incubated with simulated intestinal fluid” value (“% degradation … with simulated intestinal fluid” for short) is reported as 00%. Further, in data set [4], the “% degradation in 24 h when incubated with liver microsomes” value (“% degradation … with liver microsomes” below) amounted to 84%.
Turning to `CCc1cc(OC)ccc1-c1ccc(CC(NC(=O)[C@H](CC(=O)O)NC(=O)[C@H](CO)NC(=O)[C@@H](NC(=O)[C@H](Cc2ccccc2)NC(=O)[C@@H](NC(=O)CNC(=O)[C@H](CCC(N)=O)NC(=O)C2(NC(=O)[C@@H](N)Cc3c[nH]cn3)CC2)[C@@H](C)O)[C@@H](C)O)C(=O)NC(Cc2ccc(-c3ccccc3C(F)(F)F)cc2)C(N)=O)cc1` (single isomer, unassigned) [compound 20], the “Human GLP-1 R activity (cAMP release), % activity with respect to control” value at Human GLP-1 receptor (1 nM test compound) is 96 ± 0.09%; on Human GLP-1 receptor (10 nM test compound), 99 ± 0.07%; at Human GLP-1 receptor (100 nM test compound), 99 ± 0.04%; on Human GLP-1 receptor (1 μM test compound) it was 99 ± 0.01%; at Human GLP-1 receptor (10 μM test compound), 99 ± 0.08%. Also, the “% degradation … with DPP-IV enzyme” value on DPP IV is given as 00%. Further, the half-life at DPP IV is greater than 24 h; in data set [1] it was greater than 24 h; in data set [2], 4 h; in data set [3] it was greater than 24 h; in data set [4], 2 h. The “% degradation … with human plasma” value in data set [1] is 00%. For the same compound, the “% degradation … with simulated gastric fluid” value in data set [2] is listed as 41%. Also, in data set [3], the “% degradation … with simulated intestinal fluid” value was 00%. Further, the “% degradation … with liver microsomes” value in data set [4] came to 80%.
Take `CCc1cc(OC)ccc1-c1ccc(CC(NC(=O)[C@H](CC(=O)O)NC(=O)[C@H](CO)NC(=O)[C@@H](NC(=O)C(C)(Cc2ccccc2F)NC(=O)[C@@H](NC(=O)CNC(=O)[C@H](CCC(N)=O)NC(=O)C(C)(C)NC(=O)[C@@H](N)Cc2c[nH]cn2)[C@@H](C)O)[C@@H](C)O)C(=O)NC(Cc2ccc(-c3ccccc3F)cc2)C(N)=O)cc1` (single isomer, unassigned) [compound 31]: the “Human GLP-1 R activity (cAMP release), % activity with respect to control” value at Human GLP-1 receptor (1 nM test compound) was determined as 93 ± 0.10%; at Human GLP-1 receptor (10 nM test compound), 99 ± 0.46%; on Human GLP-1 receptor (100 nM test compound) it was 99 ± 0.41%; at Human GLP-1 receptor (1 μM test compound), 99 ± 0.66%; on Human GLP-1 receptor (10 μM test compound), 99 ± 0.03%. Also, at DPP IV, the “% degradation … with DPP-IV enzyme” value is 00%. Moreover, the half-life (on DPP IV; in data set [1]; in data set [2]; in data set [3]) was greater than 24 h each time. The “% degradation … with human plasma” value in data set [1] is reported as 00%. For the same compound, the “% degradation … with simulated gastric fluid” value in data set [2] is recorded as 00%. The “% degradation … with simulated intestinal fluid” value in data set [3] was 00%. For the same compound, the “half-life (t1/2) with liver microsomes” value in data set [4] is listed as “(5) h”. In addition, in data set [4], the “% degradation … with liver microsomes” value was 31%.
On to `CCc1cc(OC)ccc1-c1ccc(CC(NC(=O)[C@H](CC(=O)O)NC(=O)[C@H](CO)NC(=O)[C@@H](NC(=O)[C@H](Cc2ccccc2)NC(=O)[C@@H](NC(=O)CNC(=O)[C@H](CCC(N)=O)NC(=O)C(C)(C)NC(=O)[C@@H](N)Cc2c[nH]cn2)[C@@H](C)O)[C@@H](C)O)C(=O)NC(Cc2ccc(-c3ccccc3C)nc2)C(N)=O)cc1` (single isomer, unassigned) [compound 14], for which the “Human GLP-1 R activity (cAMP release), % activity with respect to control” value turned out to be 62 ± 0.11% at Human GLP-1 receptor (1 nM test compound); 94 ± 0.09% on Human GLP-1 receptor (10 nM test compound); 99 ± 0.06% on Human GLP-1 receptor (100 nM test compound); 99 ± 0.14% at Human GLP-1 receptor (1 μM test compound); 99 ± 0.19% on Human GLP-1 receptor (10 μM test compound). Besides, the “% degradation … with DPP-IV enzyme” value at DPP IV was found to be 00%. Also, the half-life was greater than 24 h on DPP IV; greater than 24 h in data set [1]; 4 h in data set [2]; greater than 24 h in data set [3]; 2 h in data set [4]. The “% degradation … with human plasma” value in data set [1] is given as 00%. In data set [2], the “% degradation … with simulated gastric fluid” value is on record as 55%. In addition, the “% degradation … with simulated intestinal fluid” value in data set [3] was 00%. Further, in data set [4], the “% degradation … with liver microsomes” value is 84%.
On to `CCc1cc(OC)ccc1-c1ccc(CC(NC(=O)[C@H](CC(=O)O)NC(=O)[C@H](CO)NC(=O)[C@@H](NC(=O)C(C)(Cc2ccccc2F)NC(=O)[C@@H](NC(=O)CNC(=O)[C@H](CCC(N)=O)NC(=O)C2(NC(=O)[C@@H](N)Cc3c[nH]cn3)CC2)[C@@H](C)O)[C@@H](C)O)C(=O)NC(Cc2ccc(-c3ccccc3F)cc2)C(N)=O)cc1` (single isomer, unassigned) [compound 35], for which the “Human GLP-1 R activity (cAMP release), % activity with respect to control” value on Human GLP-1 receptor (1 nM test compound) turned out to be 99 ± 0.02%; at Human GLP-1 receptor (10 nM test compound), 99 ± 0.26%; at Human GLP-1 receptor (100 nM test compound), 99 ± 0.31%; on Human GLP-1 receptor (1 μM test compound) it was 99 ± 0.60%; on Human GLP-1 receptor (10 μM test compound), 99 ± 0.08%. Besides, on DPP IV, the “% degradation … with DPP-IV enzyme” value is 00%. Moreover, the half-life (on DPP IV; in data set [1]; in data set [2]; in data set [3]) was greater than 24 h in each case. For the same compound, the “% degradation … with human plasma” value in data set [1] is on record as 00%. For the same compound, the “% degradation … with simulated gastric fluid” value in data set [2] is reported as 00%. Also, the “% degradation … with simulated intestinal fluid” value in data set [3] was 00%. In addition, the “half-life (t1/2) with liver microsomes” value in data set [4] is “(5) h”. Moreover, the “% degradation … with liver microsomes” value in data set [4] is reported as 26%.
Regarding `CCc1cc(OC)ccc1-c1ccc(CC(NC(=O)[C@H](CC(=O)O)NC(=O)[C@H](CO)NC(=O)[C@@H](NC(=O)[C@H](Cc2ccccc2)NC(=O)[C@@H](NC(=O)CNC(=O)[C@H](CCC(N)=O)NC(=O)C2(NC(=O)[C@@H](N)Cc3c[nH]cn3)CC2)[C@@H](C)O)[C@@H](C)O)C(=O)NC(Cc2ccc(-c3ccccc3C)nc2)C(N)=O)cc1` (single isomer, unassigned) [compound 18], the “Human GLP-1 R activity (cAMP release), % activity with respect to control” value on Human GLP-1 receptor (1 nM test compound) was found to be 86 ± 0.11%; on Human GLP-1 receptor (10 nM test compound) it was 99 ± 0.09%; at Human GLP-1 receptor (100 nM test compound), 99 ± 0.06%; on Human GLP-1 receptor (1 μM test compound), 99 ± 0.14%; at Human GLP-1 receptor (10 μM test compound), 99 ± 0.19%. Also, at DPP IV, the “% degradation … with DPP-IV enzyme” value stood at 00%. For the same compound, the half-life at DPP IV was greater than 24 h; in data set [1] it was greater than 24 h; in data set [2] it was 4 h; in data set [3], greater than 24 h; in data set [4], 2 h. Further, the “% degradation … with human plasma” value in data set [1] worked out at 00%. For the same compound, the “% degradation … with simulated gastric fluid” value in data set [2] is 52%. Besides, the “% degradation … with simulated intestinal fluid” value in data set [3] was 00%. Further, the “% degradation … with liver microsomes” value in data set [4] is 81%.
